Key:
[1] = tested on: CAL-148 (Breast Carcinoma); assay: Bliss excess, mean over the matrix (fraction); higher = more synergy
Method in brief: (§1)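 Bliss excess equals the observed combination effect minus the expected value EA + EB − EA·EB, where EA and EB are the effects of each agent alone. Combination Emax is the second-highest inhibition within the matrix. Inhibition was scaled from CellTiter-Glo 2.0 luminescence, with 0 set by vehicle wells and 1 by blank wells, after 72 hours of two-drug dosing of cells plated in 1536-well plates.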

[2] = tested on: CCRF-CEM (T-Lymphoblastic Leukemia); assay: as above
Method in brief: as §1

[3] = tested on: CaR-1 (Colorectal Carcinoma); assay: as above
Method in brief: as §1

[4] = tested on: Calu-3 (Lung Adenocarcinoma); assay: as above
Method in brief: as §1

[5] = tested on: DoTc2-4510 (Cervical Carcinoma); assay: as above
Method in brief: as §1

[6] = tested on: HCC-78 (Lung Adenocarcinoma); assay: as above
Method in brief: as §1

[7] = tested on: HO-1-N-1 (Oral Cavity Carcinoma); assay: as above
Method in brief: as §1

HOS (Osteosarcoma) [8] = assay: as above
Method in brief: as §1

[9] = tested on: HT-1376 (Bladder Carcinoma); assay: as above
Method in brief: as §1

[10] = tested on: Hs-578-T (Breast Carcinoma); assay: as above
Method in brief: as §1

KELLY (Neuroblastoma) [11] = assay: as above
Method in brief: as §1

[12] = tested on: KURAMOCHI (Ovarian Carcinoma); assay: as above
Method in brief: as §1

[13] = tested on: LB831-BLC (Bladder Carcinoma); assay: as above
Method in brief: as §1

[14] = tested on: LS-180 (Colorectal Carcinoma); assay: as above
Method in brief: as §1

[15] = tested on: ME-1 (Acute Myeloid Leukemia); assay: as above
Method in brief: as §1

NB10 (Neuroblastoma) = assay: as above
Method in brief: as §1

[16] = tested on: NCI-H2085 (Non-Small Cell Lung Carcinoma); assay: as above
Method in brief: as §1

[17] = tested on: NCI-H82 (Small Cell Lung Carcinoma); assay: as above
Method in brief: as §1

[18] = tested on: RO82-W-1 (Thyroid Gland Carcinoma); assay: as above
Method in brief: as §1

[19] = tested on: Ramos-2G6-4C10 (Burkitt's Lymphoma); assay: as above
Method in brief: as §1

T98G (Glioblastoma) [20] = assay: as above
Method in brief: as §1

[21] = tested on: TE-15 (Esophageal Squamous Cell Carcinoma); assay: as above
Method in brief: as §1

[22] = tested on: TE-9 (Esophageal Squamous Cell Carcinoma); assay: as above
Method in brief: as §1

[23] = tested on: UM-UC-3 (Bladder Carcinoma); assay: as above
Method in brief: as §1

[24] = tested on: CAL-148 (Breast Carcinoma); assay: combination Emax (second highest fraction inhibited in the dose matrix, 72 h); higher = more inhibition; extreme values may be limits of the assay
Method in brief: as §1

[25] = tested on: CCRF-CEM (T-Lymphoblastic Leukemia); assay: as above
Method in brief: as §1

[26] = tested on: CaR-1 (Colorectal Carcinoma); assay: as above
Method in brief: as §1

[27] = tested on: Calu-3 (Lung Adenocarcinoma); assay: as above
Method in brief: as §1

[28] = tested on: DoTc2-4510 (Cervical Carcinoma); assay: as above
Method in brief: as §1

[29] = tested on: HCC-78 (Lung Adenocarcinoma); assay: as above
Method in brief: as §1

[30] = tested on: HO-1-N-1 (Oral Cavity Carcinoma); assay: as above
Method in brief: as §1

HOS (Osteosarcoma) [31] = assay: as above
Method in brief: as §1

[32] = tested on: HT-1376 (Bladder Carcinoma); assay: as above
Method in brief: as §1

[33] = tested on: Hs-578-T (Breast Carcinoma); assay: as above
Method in brief: as §1

KELLY (Neuroblastoma) [34] = assay: as above
Method in brief: as §1

[35] = tested on: KURAMOCHI (Ovarian Carcinoma); assay: as above
Method in brief: as §1

[36] = tested on: LB831-BLC (Bladder Carcinoma); assay: as above
Method in brief: as §1

[37] = tested on: LS-180 (Colorectal Carcinoma); assay: as above
Method in brief: as §1

[38] = tested on: ME-1 (Acute Myeloid Leukemia); assay: as above
Method in brief: as §1

[39] = tested on: NCI-H2085 (Non-Small Cell Lung Carcinoma); assay: as above
Method in brief: as §1

[40] = tested on: NCI-H82 (Small Cell Lung Carcinoma); assay: as above
Method in brief: as §1

[41] = tested on: RO82-W-1 (Thyroid Gland Carcinoma); assay: as above
Method in brief: as §1

T98G (Glioblastoma) [42] = assay: as above
Method in brief: as §1

[43] = tested on: TE-15 (Esophageal Squamous Cell Carcinoma); assay: as above
Method in brief: as §1

[44] = tested on: TE-9 (Esophageal Squamous Cell Carcinoma); assay: as above
Method in brief: as §1

[45] = tested on: UM-UC-3 (Bladder Carcinoma); assay: as above
Method in brief: as §1

`C[C@@H]1COCCN1c1cc(C2([S@](C)(=N)=O)CC2)nc(-c2ccnc3[nH]ccc23)n1` [AZD6738] + Nc1ccn([C@@H]2O[C@H](CO)[C@@H](O)C2(F)F)c(=O)n1 [Gemcitabine] (first compound max 10 µM, 7x7, partner max 0.3 µM) was tested, and the Bliss excess [1] was 0.0914, the Bliss excess [2] was 0.0838 and the Bliss excess [3] was 0.0538. For the same molecule, the Bliss excess [4] was 0.0685, the Bliss excess [5] was 0.118 and the Bliss excess [6] was 0.067. The Bliss excess [7] was 0.0528, the Bliss excess (HOS (Osteosarcoma) [8]) was 0.134 and the Bliss excess [9] was -0.0097. It also gave a Bliss excess [10] of 0.012, a Bliss excess (KELLY (Neuroblastoma) [11]) of -0.0042 and a Bliss excess [12] of 0.0761. For the same molecule, the Bliss excess [13] was 0.113, the Bliss excess [14] was -0.0568 and the Bliss excess [15] was 0.0907. For the same molecule, the Bliss excess (NB10 (Neuroblastoma)) was 0.0622, the Bliss excess [16] was 0.07 and the Bliss excess [17] was -0.0333. It also gave a Bliss excess [18] of -0.018, a Bliss excess [19] of 0.15 and a Bliss excess (T98G (Glioblastoma) [20]) of -0.0284. The Bliss excess [21] was 0.0378, the Bliss excess [22] was 0.038 and the Bliss excess [23] was 0.113. The “combination Emax” value [24] was 1, the “combination Emax” value [25] was 1 and the “combination Emax” value [26] was 0.752. For the same molecule, the “combination Emax” value [27] was 0.694, the “combination Emax” value [28] was 0.795 and the “combination Emax” value [29] was 0.901. The “combination Emax” value [30] was 1, the “combination Emax” value (HOS (Osteosarcoma) [31]) was 0.87 and the “combination Emax” value [32] was 0.491. For the same molecule, the “combination Emax” value [33] was 0.772, the “combination Emax” value (KELLY (Neuroblastoma) [34]) was 1 and the “combination Emax” value [35] was 0.667. The “combination Emax” value [36] was 0.9, the “combination Emax” value [37] was 0.819 and the “combination Emax” value [38] was 0.774. For the same molecule, the “combination Emax” value [39] was 0.587, the “combination Emax” value [40] was 0.987 and the “combination Emax” value [41] was 0.223. For the same molecule, the “combination Emax” value (T98G (Glioblastoma) [42]) was 0.858, the “combination Emax” value [43] was 0.939 and the “combination Emax” value [44] was 0.538. For the same molecule, the “combination Emax” value [45] was 0.966.

From the supplement of paper PMC11061612
